Tests used:
[1] = system: Rice (variety: Nipponbare); assay: Test Example 3: promotion of root growth by hydroponics of rice, 0.1 ppm; assay type: in vivo; settings: Oryza sativa, hydroponic solution containing the test compound at 0.1 ppm, average of 4 or 5 individuals, read-out: Relative value of length of seminal root (%-untreated control plot)
In short: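 Surface-sterilised Nipponbare seeds were germinated 3 days in the dark at 28 °C in ¼-strength Hoagland solution containing 0.1 ppm compound; DMSO-only solution served as control. Seedlings were then grown 3 days hydroponically at 26 °C, 4,000 lux, 16 h day. Seminal root length was measured and averaged over 4–5 plants.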

[2] = system: Nicotiana benthamiana; assay: Test Example 5: growth promotion under low-temperature stress by hydroponics of Nicotiana benthamiana, 1 ppm; assay type: in vivo; settings: 1 ppm in medium, low-temperature stress 7 days at 1.5±1.0° C., green leaf area 3 days later, equation (1)
In short: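 Seeds were grown in half-strength Murashige–Skoog medium (pH 5.8) containing 1 ppm compound for 7 days at 22 °C, then chilled 7 days at 1.5±1.0 °C and recovered 3 days at 22 °C. Green leaf area was imaged. Relative leaf area = 100×(treated − untreated)/(unstressed untreated − stressed untreated).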

Row | SMILES | change in vivo at 0.1 ppm [1] [%] | relative leaf area (% of untreated control) at 1 ppm [2] [%]
1 | O=C(NCc1ccccc1)c1cc2cc(C(F)(F)F)ccc2o1 [Compound 54] | > 5 | –
2 | Cc1c(C(=O)O)oc2ccccc12 [Compound 36] | > 5 | ≥ 5
3 | COC(=O)c1oc2ccc(C(F)(F)F)cc2c1C(F)(F)F [Compound 70] | – | ≥ 5
4 | COC(=O)c1oc2ccc(C(F)(F)F)cc2c1C [Compound 33] | > 5 | –
5 | O=C(O)c1nc2c(F)cc(F)cc2s1 [Compound 86] | – | ≥ 5
6 | COC(=O)c1nc2cc(C(F)(F)F)ccc2o1 [Compound 17, methyl 5-trifluoromethylbenzoxazole-2-carboxylate] | – | ≥ 5
7 | COC(=O)c1oc2ccc(C(F)(F)F)cc2c1NS(=O)(=O)c1ccccc1 [Compound 68] | > 5 | ≥ 5
8 | COC(=O)c1oc2ccccc2c1C(F)(F)F [Compound 83] | > 5 | ≥ 5
9 | O=C(O)c1oc2ccc(C(F)(F)F)cc2c1C(F)(F)F [Compound 69] | – | ≥ 5
10 | O=C(Nc1ccccc1)c1oc2ccc(C(F)(F)F)cc2c1C(F)(F)F [Compound 76] | > 5 | –
11 | CCOC(=O)c1oc2ccc(C(F)(F)F)cc2c1C(F)(F)F [Compound 71] | > 5 | –
12 | COC(=O)c1oc2ccc(C(F)(F)F)cc2c1N(C(C)=O)C(C)=O [Compound 64] | > 5 | ≥ 5
13 | COC(=O)c1oc2ccc(C(F)(F)F)cc2c1O [Compound 50] | > 5 | –
14 | NC(=O)c1cc2cc(C(F)(F)F)ccc2o1 [Compound 51] | > 5 | ≥ 5
15 | NC(=O)c1oc2ccc(C(F)(F)F)cc2c1C(F)(F)F [Compound 74] | > 5 | ≥ 5
16 | CNC(=O)c1cc2cc(C(F)(F)F)ccc2o1 [Compound 52] | > 5 | ≥ 5
17 | O=C(OCc1ccccc1)c1cc2cc(C(F)(F)F)ccc2o1 [Compound 56] | > 5 | ≥ 5

Row | SMILES | change in vivo at 0.1 ppm [1] [%] | relative leaf area (% of untreated control) at 1 ppm [2] [%]
18 | CNC(=O)c1oc2ccc(C(F)(F)F)cc2c1C(F)(F)F [Compound 75] | > 5 | –
19 | CCOC(=O)c1cc2c(C(F)(F)F)cccc2o1 [Compound 44] | > 5 | –
20 | O=C(Oc1ccccc1)c1cc2cc(C(F)(F)F)ccc2o1 [Compound 55] | > 5 | ≥ 5
21 | Cc1c(C(=O)O)oc2ccc(C(F)(F)F)cc12 [Compound 34] | > 5 | ≥ 5
22 | COC(=O)c1oc2ccc(C(F)(F)F)cc2c1NS(C)(=O)=O [Compound 67] | > 5 | –
23 | COC(=O)c1oc2ccccc2c1NC(C)=O [Compound 40] | > 5 | –
24 | O=C(O)c1oc2ccccc2c1C(F)(F)F [Compound 82] | – | ≥ 5
25 | O=C(NCc1ccccc1)c1oc2ccc(C(F)(F)F)cc2c1C(F)(F)F [Compound 77] | – | ≥ 5
26 | COC(=O)c1cc2c(C(F)(F)F)cccc2o1 [Compound 45] | > 5 | –
27 | O=C(Nc1ccccc1)c1cc2cc(C(F)(F)F)ccc2o1 [Compound 53] | > 5 | ≥ 5
28 | O=C(O)c1cc2cc(Br)ccc2o1 [Compound 79] | > 5 | –
29 | O=C(OCc1ccccc1)c1oc2ccc(C(F)(F)F)cc2c1C(F)(F)F [Compound 73] | > 5 | –
30 | COC(=O)c1oc2ccccc2c1C [Compound 37] | > 5 | ≥ 5
31 | COC(=O)c1oc2ccc(C(F)(F)F)cc2c1NC(=O)C(F)(F)F [Compound 65] | – | ≥ 5
32 | COC(=O)c1oc2ccccc2c1N(C(C)=O)C(C)=O [Compound 41] | > 5 | –
33 | O=C(O)c1cc2c(C(F)(F)F)cccc2o1 [Compound 43] | > 5 | –
34 | CCOC(=O)c1oc2cccc(O)c2c1C [Compound 80] | > 5 | –

Source: patent US20150289512A1, “METHOD FOR PROMOTING PLANT GROWTH” (SUMITOMO CHEMICAL COMPANY, LIMITED, priority 2012, published 2015)
